How the values were obtained:
Format in all cases: in vivo, human
[1] = tested on: subjects with active autoantibody-positive SLE; test: Phase 2b study in SLE: SLE Responder Index 4 (SRI-4) response at week 24; conditions: for Percentage of Subjects Who Achieve SRI(4) at Week 24, n/m (%) / SRI(4) at Week 24, Stratified Difference (%) (95% CI), Iberdomide - Placebo: ITT
Method: (§1) The pharmacokinetics, pharmacodynamics (PD), efficacy, and safety of oral iberdomide ((S)-3-[4-({4-[(morpholin-4-yl)methyl]phenyl}methoxy)-1-oxo-1,3-dihydro-2H-isoindol-2-yl]piperidine-2,6-dione-hydrogen chloride (1/1)) were evaluated in a phase 2b study in subjects with active autoantibody-positive SLE.
(§2) Adult SLE patients (N=288) with a ≥6-month history of SLE and SLE Disease Activity Index (SLEDAI 2K) ≥6 were randomized to placebo (n=83) or iberdomide 0.15 mg QD (n=42), 0.3 mg QD (n=82), or 0.45 mg QD (n=81). Clinical response was determined by the SLE Responder Index 4 (SRI-4) at week 24 for all patients and within pre-specified biomarker-enriched subsets based on expression of Ikaros, Aiolos, the Type 1 IFN signature (IFI27, IFI44, IFI44L, RSAD2), and other gene modules measured from fingerstick blood collected at baseline (Modular Immune Profile Test, DxTerity Diagnostics, Inc.). The primary objective of the study was to evaluate the clinical efficacy of 3 doses of iberdomide (0.45 mg once per day [QD], 0.30 mg QD, or 0.15 mg QD) compared to placebo, for the treatment of active SLE using the SLE Responder Index at Week 24.

[2] = tested on: subjects with active autoantibody-positive SLE; test: Phase 2b study in SLE: BILAG-Based Combined Lupus Assessment (BICLA) response
Method: as §1, §2
The treatment comparison with placebo (33.3%) for BICLA was larger in the subgroup of subjects with baseline IKZF3 high, but only for 0.45 mg QD iberdomide (52.0%) and 0.15 mg QD iberdomide (41.7%).

[3] = tested on: subjects with active autoantibody-positive SLE; test: Phase 2b study in SLE: Lupus Low Disease Activity State (LLDAS) response; conditions: for percentages of LLDAS responders: Week 24; for LLDAS response at Week 24, stratified difference from placebo / percentage of subjects who achieved LLDAS response at Week 24: overall subjects; for percentage of subjects who achieved LLDAS response at Week 24: NRI, ITT
Method: as §1, §2
The percentages of LLDAS responders for key mRNA and DNA subgroups were as follows: • IKZF1 high: 23.4%, 17.0%, and 14.3% for 0.45 mg, 0.30 mg, and 0.15 mg QD iberdomide, respectively, compared with 12.5% for placebo. • IKZF3 high: 27.8%, 9.4%, 14.3%, respectively, compared with 11.1% for placebo. • Type 1 IFN module high: 17.5%, 14.3%, and 24.0%, respectively, compared with 8.3% for placebo. • Ikaros IFN module high: 16.1%, 14.3%, and 20.0%, respectively, compared with 8.2% for placebo. Drug Dose, Drug Concentration, and Relationship to Response

[4] = tested on: subjects with active autoantibody-positive SLE; test: Exposure-response analysis: logistic regression of SRI(4) response on iberdomide AUCss
Method: PK assessments were performed. Exposure-response analysis included subjects from Study SLE-002 who had both posthoc estimated iberdomide PK metric of AUCss from the final population PK model and efficacy data.
The effect of iberdomide exposure on SRI(4) response was further evaluated by multivariate logistic modeling. Subject characteristics of baseline oral OCS (yes as reference), baseline antimalarials (yes as reference), categorical variables of Type I IFN and IKZF3 (Aiolos) signature (low as reference) were tested in regression analysis. Subjects with IFKZ3 (Aiolos) high gene signature were associated with better response (p=0.033) (Table 2).

[5] = T cell Exhaustion: Low at baseline, 0.15 mg QD
[6] = T cell Exhaustion: Low at baseline, 0.30 mg QD
[7] = T cell Exhaustion: Low at baseline, 0.45 mg QD
[8] = Type 1 IFN: High at baseline, 0.15 mg QD
[9] = Type 1 IFN: High at baseline, 0.30 mg QD
[10] = Type 1 IFN: High at baseline, 0.45 mg QD
[11] = AUCss on IFKZ3 (Aiolos) High Subset

## O=C1CC[C@H](N2Cc3c(OCc4ccc(CN5CCOCC5)cc4)cccc3C2=O)C(=O)N1 [iberdomide, (S)-3-[4-({4-[(morpholin-4-yl)methyl]phenyl}methoxy)-1-oxo-1,3-dihydro-2H-isoindol-2-yl]piperidine-2,6-dione-hydrogen chloride (1/1)]
[1]; Overall Subjects, 0.45 mg QD, nonresponder imputation
  Percentage of Subjects Who Achieve SRI(4) at Week 24, n/m (%): 54.3%
[1]; Overall Subjects, 0.45 mg QD, nonresponder imputation, listed as Iberdomide
  Percentage of Subjects Who Achieve SRI(4) at Week 24, n/m (%): 44/81 (54.3) %
[1]; Overall Subjects, 0.45 mg QD, listed as Iberdomide
  SRI(4) at Week 24, Stratified Difference (%) (95% CI), Iberdomide - Placebo: 19.4 (4.12, 33.42) %
[1]; [5]
  Percentage of Subjects Who Achieve SRI(4) at Week 24, n/m (%): 13/29 (44.8) %
  SRI(4) at Week 24, Stratified Difference (%) (95% CI), Iberdomide - Placebo: 5.4 (−15.51, 26.63) %
[1]; [6]
  Percentage of Subjects Who Achieve SRI(4) at Week 24, n/m (%): 28/65 (43.1) %
  SRI(4) at Week 24, Stratified Difference (%) (95% CI), Iberdomide - Placebo: 4.7 (−12.69, 21.53) %
[1]; [7]
  Percentage of Subjects Who Achieve SRI(4) at Week 24, n/m (%): 39/66 (59.1) %
  SRI(4) at Week 24, Stratified Difference (%) (95% CI), Iberdomide - Placebo: 21.9 (4.30, 37.77) %
[1]; [8]
  Percentage of Subjects Who Achieve SRI(4) at Week 24, n/m (%): 15/25 (60.0) %
  SRI(4) at Week 24, Stratified Difference (%) (95% CI), Iberdomide - Placebo: 25.6%
[1]; Type 1 IFN: High at baseline, 0.15 mg QD, listed as Iberdomide
  SRI(4) at Week 24, Stratified Difference (%) (95% CI), Iberdomide - Placebo: 25.6 (1.54, 46.35) %
[1]; [9]
  Percentage of Subjects Who Achieve SRI(4) at Week 24, n/m (%): 21/49 (42.9) %
  SRI(4) at Week 24, Stratified Difference (%) (95% CI), Iberdomide - Placebo: 10.6 (−8.93, 29.11) %
[1]; [10]
  Percentage of Subjects Who Achieve SRI(4) at Week 24, n/m (%): 34/57 (59.6) %
  SRI(4) at Week 24, Stratified Difference (%) (95% CI), Iberdomide - Placebo: 26.8%
[1]; Type 1 IFN: High at baseline, 0.45 mg QD, listed as Iberdomide
  SRI(4) at Week 24, Stratified Difference (%) (95% CI), Iberdomide - Placebo: 26.8 (7.49, 43.54) %
[1]; double-negative IFN Low Aiolos Low population, week 24
  SRI-4 clinical efficacy: no clinical efficacy
[2]; baseline IKZF3 high, 0.15 mg QD
  percentage of subjects who achieved BICLA response at Week 24: 41.7%
[2]; baseline IKZF3 high, 0.45 mg QD
  percentage of subjects who achieved BICLA response at Week 24: 52.0%
[2]; overall subjects with baseline BILAG 2004 1A or 2B scores, 0.15 mg QD
  BICLA response at Week 24, stratified difference from placebo: 0.3%
[2]; overall subjects with baseline BILAG 2004 1A or 2B scores, 0.15 mg QD, NRI, ITT
  percentage of subjects who achieved BICLA response at Week 24: 37.1%
[2]; overall subjects with baseline BILAG 2004 1A or 2B scores, 0.30 mg QD
  BICLA response at Week 24, stratified difference from placebo: −3.6%
[2]; overall subjects with baseline BILAG 2004 1A or 2B scores, 0.30 mg QD, NRI, ITT
  percentage of subjects who achieved BICLA response at Week 24: 33.3%
[2]; overall subjects with baseline BILAG 2004 1A or 2B scores, 0.45 mg QD
  BICLA response at Week 24, stratified difference from placebo: 1.0%
[2]; overall subjects with baseline BILAG 2004 1A or 2B scores, 0.45 mg QD, NRI, ITT
  percentage of subjects who achieved BICLA response at Week 24: 37.3%
[3]; IKZF1 high, 0.15 mg QD
  percentages of LLDAS responders: 14.3%
[3]; IKZF1 high, 0.30 mg QD
  percentages of LLDAS responders: 17.0%
[3]; IKZF1 high, 0.45 mg QD
  percentages of LLDAS responders: 23.4%
[3]; IKZF3 high, 0.15 mg QD
  percentages of LLDAS responders: 14.3%
[3]; IKZF3 high, 0.30 mg QD
  percentages of LLDAS responders: 9.4%
[3]; IKZF3 high, 0.45 mg QD
  percentages of LLDAS responders: 27.8%
[3]; Ikaros IFN module high, 0.15 mg QD
  percentages of LLDAS responders: 20.0%
[3]; Ikaros IFN module high, 0.30 mg QD
  percentages of LLDAS responders: 14.3%
[3]; Ikaros IFN module high, 0.45 mg QD
  percentages of LLDAS responders: 16.1%
[3]; Type 1 IFN module high, 0.15 mg QD
  percentages of LLDAS responders: 24.0%
[3]; Type 1 IFN module high, 0.30 mg QD
  percentages of LLDAS responders: 14.3%
[3]; Type 1 IFN module high, 0.45 mg QD
  percentages of LLDAS responders: 17.5%
[3]; 0.15 mg QD
  LLDAS response at Week 24, stratified difference from placebo: 6.7%
  percentage of subjects who achieved LLDAS response at Week 24: 19.0%
[3]; 0.30 mg QD
  percentage of subjects who achieved LLDAS response at Week 24: 17.1%
[3]; 0.45 mg QD
  LLDAS response at Week 24, stratified difference from placebo: 6.9%
  percentage of subjects who achieved LLDAS response at Week 24: 19.8%
[4]; [11]
  OR (odds ratio) of Multivariate Logistic Model for SRI(4): 1.102
  Parameter Estimate of Multivariate Logistic Model for SRI(4): 0.0969
[4]; dose range 0.15 mg to 0.45 mg QD
  relationship of binary response SRI(4) to iberdomide AUCss (logistic regression): no relationship

— patent US12064437B2, “Methods for treating systemic lupus erythematosus and the use of biomarkers as a predictor of clinical sensitivity to therapies” (CELGENE CORPORATION, priority 2020, dated 2024)
